# Data from US20070128217A1 (priority 2003, published 2007).
# What was measured:
# [1] = test system: antibodies in sera from SARS patients (sera 1a, 1b, 2, 6, 37, 62, London, SARS-yellow, SARS-green); type: binding, human; design: Binding of serum 6 to linear peptides of protein X1 of SARS-CoV Urbani / Binding of serum 37 to linear peptides of protein X1 of SARS-CoV Urbani / Binding of serum 6 to looped/cyclic peptide (PEPSCAN-ELISA) / Binding of serum 37 to looped/cyclic peptide (PEPSCAN-ELISA) / Binding of serum 37 to looped/cyclic peptides of protein X1 of SARS-CoV Urbani / Binding of serum 6 to linear peptides of protein X2 / Binding of serum 37 to linear peptides of protein X2 / Binding of serum 37 to looped/cyclic peptides of protein X2 of SARS-CoV Urbani / Binding of serum 6 to linear peptides of protein M of SARS-CoV Urbani / Binding of serum 37 to linear peptides of protein M of SARS-CoV Urbani / Binding of serum 6 to looped/cyclic peptides of protein M of SARS-CoV Urbani / Binding of serum 37 to looped/cyclic peptides of protein M of SARS-CoV Urbani / Binding of serum 6 to linear peptides of protein X3 of SARS-CoV Urbani / Binding of serum 37 to linear peptides of protein X3 of SARS-CoV Urbani / Binding of serum 37 to looped/cyclic peptides of protein X3 of SARS-CoV Urbani / Binding of serum 6 to linear peptides of protein X4 of SARS-CoV Urbani / Binding of serum 37 to linear peptides of protein X4 of SARS-CoV Urbani / Binding of serum 37 to looped/cyclic peptides of protein X4 of SARS-CoV Urbani / Binding of serum 6 to linear peptides of protein X5 of SARS-CoV Urbani / Binding of serum 37 to linear peptides of protein X5 of SARS-CoV Urbani / Binding of serum 37 to looped/cyclic peptides of protein X5 of SARS-CoV Urbani / Binding of serum 6 to linear peptides of protein N of SARS-CoV Urbani / Binding of serum 37 to linear peptides of protein N of SARS-CoV Urbani / Binding of serum 6 to linear peptide (PEPSCAN-ELISA) / Binding of serum 1a to looped/cyclic peptides of protein N of SARS-CoV Urbani / Binding of serum 1b to looped/cyclic peptides of protein N of SARS-CoV Urbani / Binding of serum 2 to looped/cyclic peptides of protein N of SARS-CoV Urbani / Binding of serum 6 to looped/cyclic peptides of protein N of SARS-CoV Urbani / Binding of serum 37 to looped/cyclic peptides of protein N of SARS-CoV Urbani / Binding of serum 62 to looped/cyclic peptides of protein N of SARS-CoV Urbani / Binding of serum London to looped/cyclic peptides of protein N of SARS-CoV Urbani / Binding of serum SARS-green to looped/cyclic peptides of protein N of SARS-CoV Urbani: unit not given here
# [2] = test system: control sera (pooled serum of ten healthy LUMC hospital workers; commercial negative donor pooled serum from the Dutch bloodbank); type: binding, human; design: Binding of Control serum LUMC to linear peptides / Binding of Control serum Blood-bank to linear peptides / Binding of Control serum LUMC to looped peptides / Binding of Control Serum Blood-Bank to Looped peptides / Binding of Control serum LUMC to linear peptides of the protein M of SARS-CoV Urbani / Binding of Control serum Blood-bank to linear peptides of the protein M of SARS-CoV Urbani / Binding of Control serum LUMC to looped peptides of the protein M of SARS-CoV Urbani / Binding of Control Serum Blood-Bank to Looped peptides of the protein M of SARS-CoV Urbani: unit not given here
# [3] = test system: rabbit serum obtained by immunizing a rabbit with the SARS-CoV strain Frankfurt 1; type: binding; design: Binding of a rabbit serum to linear peptides / Binding of a rabbit serum to looped peptides / Rabbit serum linear peptides / Rabbit serum looped peptides / Binding of a rabbit serum to linear peptides of protein N of SARS-CoV Urbani (Rabbit serum linear peptides) / Binding of a rabbit serum to looped/cyclic peptides of protein N of SARS-CoV Urbani (Rabbit serum looped peptides): unit not given here
sequence,measurement,setting,value
PCPSGTYEGNSPFHP,Binding of serum 1a to linear peptides of protein X4 of SARS-CoV Urbani,[1],0.7
same,Binding of serum 1a to looped/cyclic peptides of protein X4 of SARS-CoV Urbani,[1],0.7
same,Binding of serum 1b to linear peptides of protein X4 of SARS-CoV Urbani,[1],0.5
same,Binding of serum 1b to looped/cyclic peptides of protein X4 of SARS-CoV Urbani,[1],0.1
same,Binding of serum 2 to linear peptides of protein X4 of SARS-CoV Urbani,[1],0.4
same,Binding of serum 2 to looped/cyclic peptides of protein X4 of SARS-CoV Urbani,[1],0.7
same,Binding of serum 6 to linear peptides of protein X4 of SARS-CoV Urbani,[1],0.5
same,Binding of serum 6 to looped/cyclic peptides of protein X4 of SARS-CoV Urbani,[1],0.5
same,Binding of serum 37 to linear peptides of protein X4 of SARS-CoV Urbani,[1],0.7
same,Binding of serum 37 to looped/cyclic peptides of protein X4 of SARS-CoV Urbani,[1],0.7
same,Binding of serum 62 to linear peptides of protein X4 of SARS-CoV Urbani,[1],0.7
same,Binding of serum 62 to looped/cyclic peptides of protein X4 of SARS-CoV Urbani,[1],0.7
same,Binding of serum London to linear peptides of protein X4 of SARS-CoV Urbani,[1],0.7
same,Binding of serum London to looped/cyclic peptides of protein X4 of SARS-CoV Urbani,[1],0.3
same,Binding of serum SARS-green to linear peptides of protein X4 of SARS-CoV Urbani,[1],0.5
same,Binding of serum SARS-green to looped/cyclic peptides of protein X4 of SARS-CoV Urbani,[1],0.4
same,Binding of serum SARS-yellow to linear peptides of protein X4 of SARS-CoV Urbani,[1],0.7
same,Binding of serum SARS-yellow to looped/cyclic peptides of protein X4 of SARS-CoV Urbani,[1],0.4
same,Binding of Control Serum Blood-Bank to Looped peptides,[2],0.7
same,Binding of Control serum Blood-bank to linear peptides,[2],0.6
same,Binding of Control serum LUMC to linear peptides,[2],0.5
same,Binding of Control serum LUMC to looped peptides,[2],0.9
same,Rabbit serum linear peptides,[3],0.6
same,Rabbit serum looped peptides,[3],0.4
PETNILLNVPLRGTI,Binding of serum 1a to linear peptides of protein M of SARS-CoV Urbani,[1],0.8
same,Binding of serum 1a to looped/cyclic peptides of protein M of SARS-CoV Urbani,[1],0.6
same,Binding of serum 1b to linear peptides of protein M of SARS-CoV Urbani,[1],0.6
same,Binding of serum 1b to looped/cyclic peptides of protein M of SARS-CoV Urbani,[1],0.6
same,Binding of serum 2 to linear peptides of protein M of SARS-CoV Urbani,[1],0.7
same,Binding of serum 2 to looped/cyclic peptides of protein M of SARS-CoV Urbani,[1],0.7
same,Binding of serum 6 to linear peptides of protein M of SARS-CoV Urbani,[1],0.4
same,Binding of serum 6 to looped/cyclic peptides of protein M of SARS-CoV Urbani,[1],0.9
same,Binding of serum 37 to linear peptides of protein M of SARS-CoV Urbani,[1],0.9
same,Binding of serum 37 to looped/cyclic peptides of protein M of SARS-CoV Urbani,[1],0.8
same,Binding of serum 62 to linear peptides of protein M of SARS-CoV Urbani,[1],0.5
same,Binding of serum 62 to looped/cyclic peptides of protein M of SARS-CoV Urbani,[1],0.8
same,Binding of serum London to linear peptides of protein M of SARS-CoV Urbani,[1],0.4
same,Binding of serum London to looped/cyclic peptides of protein M of SARS-CoV Urbani,[1],0.3
same,Binding of serum SARS-green to linear peptides of protein M of SARS-CoV Urbani,[1],0.5
same,Binding of serum SARS-green to looped/cyclic peptides of protein M of SARS-CoV Urbani,[1],0.0
same,Binding of serum SARS-yellow to linear peptides of protein M of SARS-CoV Urbani,[1],0.3
same,Binding of serum SARS-yellow to looped/cyclic peptides of protein M of SARS-CoV Urbani,[1],0.6
same,Binding of Control Serum Blood-Bank to Looped peptides of the protein M of SARS-CoV Urbani,[2],0.8
same,Binding of Control serum Blood-bank to linear peptides of the protein M of SARS-CoV Urbani,[2],0.8
same,Binding of Control serum LUMC to linear peptides of the protein M of SARS-CoV Urbani,[2],0.8
same,Binding of Control serum LUMC to looped peptides of the protein M of SARS-CoV Urbani,[2],0.7
same,Rabbit serum linear peptides,[3],0.1
same,Rabbit serum looped peptides,[3],0.3
PFGWLVIGVAFLAVF,Binding of serum 1a to linear peptides of protein X1 of SARS-CoV Urbani,[1],0.7
same,Binding of serum 1a to looped/cyclic peptide (PEPSCAN-ELISA),[1],0.5
same,Binding of serum 1b to linear peptides of protein X1 of SARS-CoV Urbani,[1],0.5
same,Binding of serum 1b to looped/cyclic peptide (PEPSCAN-ELISA),[1],0.4
same,Binding of serum 2 to linear peptides of protein X1 of SARS-CoV Urbani,[1],0.5
same,Binding of serum 2 to looped/cyclic peptide (PEPSCAN-ELISA),[1],0.5
same,Binding of serum 6 to linear peptides of protein X1 of SARS-CoV Urbani,[1],0.4
same,Binding of serum 6 to looped/cyclic peptide (PEPSCAN-ELISA),[1],0.2
same,Binding of serum 37 to linear peptides of protein X1 of SARS-CoV Urbani,[1],0.7
same,Binding of serum 37 to looped/cyclic peptide (PEPSCAN-ELISA),[1],0.5
same,Binding of serum 62 to linear peptides of protein X1 of SARS-CoV Urbani,[1],0.6
same,Binding of serum 62 to looped/cyclic peptide (PEPSCAN-ELISA),[1],0.5
same,Binding of serum London to linear peptides of protein X1 of SARS-CoV Urbani,[1],0.3
same,Binding of serum London to looped/cyclic peptide (PEPSCAN-ELISA),[1],0.2
same,Binding of serum SARS-green to linear peptides of protein X1 of SARS-CoV Urbani,[1],0.3
same,Binding of serum SARS-green to looped/cyclic peptide (PEPSCAN-ELISA),[1],0.4
same,Binding of serum SARS-yellow to linear peptides of protein X1 of SARS-CoV Urbani,[1],0.7
same,Binding of serum SARS-yellow to looped/cyclic peptide (PEPSCAN-ELISA),[1],0.5
same,Binding of Control Serum Blood-Bank to Looped peptides,[2],0.5
same,Binding of Control serum Blood-bank to linear peptides,[2],0.5
same,Binding of Control serum LUMC to linear peptides,[2],0.5
same,Binding of Control serum LUMC to looped peptides,[2],0.5
same,Binding of a rabbit serum to linear peptides,[3],1.1
same,Binding of a rabbit serum to looped peptides,[3],0.5
PKEITVATSRTLSYY,Binding of serum 1a to linear peptides of protein M of SARS-CoV Urbani,[1],0.6
same,Binding of serum 1a to looped/cyclic peptides of protein M of SARS-CoV Urbani,[1],0.6
same,Binding of serum 1b to linear peptides of protein M of SARS-CoV Urbani,[1],0.4
same,Binding of serum 1b to looped/cyclic peptides of protein M of SARS-CoV Urbani,[1],0.6
same,Binding of serum 2 to linear peptides of protein M of SARS-CoV Urbani,[1],0.5
same,Binding of serum 2 to looped/cyclic peptides of protein M of SARS-CoV Urbani,[1],0.6
same,Binding of serum 6 to linear peptides of protein M of SARS-CoV Urbani,[1],0.2
same,Binding of serum 6 to looped/cyclic peptides of protein M of SARS-CoV Urbani,[1],0.7
same,Binding of serum 37 to linear peptides of protein M of SARS-CoV Urbani,[1],0.8
same,Binding of serum 37 to looped/cyclic peptides of protein M of SARS-CoV Urbani,[1],0.6
same,Binding of serum 62 to linear peptides of protein M of SARS-CoV Urbani,[1],0.7
same,Binding of serum 62 to looped/cyclic peptides of protein M of SARS-CoV Urbani,[1],0.6
same,Binding of serum London to linear peptides of protein M of SARS-CoV Urbani,[1],0.3
same,Binding of serum London to looped/cyclic peptides of protein M of SARS-CoV Urbani,[1],0.2
same,Binding of serum SARS-green to linear peptides of protein M of SARS-CoV Urbani,[1],0.1
same,Binding of serum SARS-green to looped/cyclic peptides of protein M of SARS-CoV Urbani,[1],0.4
same,Binding of serum SARS-yellow to linear peptides of protein M of SARS-CoV Urbani,[1],0.1
same,Binding of serum SARS-yellow to looped/cyclic peptides of protein M of SARS-CoV Urbani,[1],0.4
same,Binding of Control Serum Blood-Bank to Looped peptides of the protein M of SARS-CoV Urbani,[2],0.6
same,Binding of Control serum Blood-bank to linear peptides of the protein M of SARS-CoV Urbani,[2],0.5
same,Binding of Control serum LUMC to linear peptides of the protein M of SARS-CoV Urbani,[2],0.3
same,Binding of Control serum LUMC to looped peptides of the protein M of SARS-CoV Urbani,[2],0.6
same,Rabbit serum linear peptides,[3],0.5
same,Rabbit serum looped peptides,[3],0.2
